This passage reports TGI results from PubChem BioAssay (NCI).

Assay in all cases: NCI anticancer screen, dose series, 48 h
In test [1] the test system is ACHN renal.
Test [2] deals with CAKI-1 renal.
Test [3] deals with HCT-116 colon.
Test [4] has as its system IGROV1 ovarian.
Test [5] relates to RXF 393 renal.
Test [6] relates to SF-268 CNS.
The test system of test [7] is SF-295 CNS.
Test [8] has as its system SW-620 colon.
Test [9] deals with HS 578T breast.
Test [10] deals with LOX IMVI melanoma.

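Dose response: 5 concentrations. Exposure: 48 h. Format: 96-well plates. Endpoint: linear interpolation; highest concentration if not reached. At the TGI there is no net growth.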

With `c1cnc2c(c1)-n1cccc1C1(CCOCC1)NN2`, the TGI in test [1], in [2], in test [3], in test [4], in test [5] and in test [6] was more than 100 µM in each case. The TGI in test [7] and in test [8] was more than 100 µM in each case.
Consider `CN1CC(c2ccccc2)=Cc2c1ccc(N)c2N=N`, for which the TGI in test [1] was more than 100 µM; in test [2], 67.9 µM; in test [3] it was more than 100 µM; in test [9], more than 100 µM; in [4] it was more than 100 µM; in test [10], more than 100 µM. Besides, the TGI in [6], in test [7] and in test [8] was more than 100 µM in each case.
For `O=C(NCCNCCO)N/N=C/c1cccc([N+](=O)[O-])c1`, the TGI in test [1], in test [2], in test [3], in test [4], in test [10] and in test [5] was more than 100 µM each time. Further, the TGI in [6], in [7] and in test [8] was more than 100 µM each time.
`Nc1cc2c(cc1[N+](=O)[O-])[nH]c1c(-c3ccccc3)nccc12`: the TGI was 36 µM in test [3]; 35.9 µM in test [4]; 28.8 µM in test [10]; 73.1 µM in test [5]; more than 100 µM in test [6]; 53.4 µM in test [7]. The TGI in test [8] was more than 81.5 µM.
As for `N=C(N)/N=C(/C=C/c1ccccc1)CC1OC(=O)c2ccccc21` (centres undefined), the TGI in test [1], in test [2], in test [3], in test [4], in test [10] and in test [5] was more than 100 µM each time. Besides, the TGI in test [6] and in test [8] was more than 100 µM each time.
In the case of `C1=C2SSC3=CC=C(SSc4ccc(s4)SSC4=CC=C(SSC(=C1)S2)S4)S3`, the TGI in test [1], in test [2], in test [3], in test [4], in [10] and in [5] was more than 100 µM each time. For the same compound, the TGI in [6], in test [7] and in test [8] was more than 100 µM each time.
Regarding `COc1ccc(-n2sc3ncc(-c4ccccc4)cc3c2=O)cc1`, the TGI was 48.3 µM in [1]; 67.3 µM in [2]; 57.8 µM in test [3]; 78.8 µM in test [4]; more than 100 µM in test [10]; more than 100 µM in test [5]. Also, the TGI in test [7] and in test [8] was more than 100 µM in each case.
`Cc1ccc(OP2(=O)Oc3ccc4ccccc4c3CN2c2ccc(Cl)cc2)cc1C` (centres undefined): the TGI in test [2], in test [3], in test [4], in test [10], in test [5] and in [6] was more than 100 µM each time. Further, the TGI in [7] and in [8] was more than 100 µM throughout.
Take `COc1ccc(-n2c(CCCC(=O)O)nc3c2C(=O)c2ccccc2C3=O)cc1`: the TGI in test [1], in test [2], in [3], in test [9], in test [4] and in test [10] was more than 100 µM throughout. Besides, the TGI in [6], in [7] and in [8] was more than 100 µM in each case.
As to `Cc1ccc(-c2cc(-c3ccco3)nc(N)n2)o1`, the TGI in test [1], in test [3], in [4], in test [10], in test [5] and in [6] was more than 100 µM throughout. For the same compound, the TGI in test [7] and in test [8] was more than 100 µM each time.
As to `N#CI1OC(=O)c2ccccc21`, the TGI in [1], in test [2], in [3], in test [4], in test [10] and in [5] was more than 100 µM throughout. For the same compound, the TGI in test [6], in test [7] and in [8] was more than 100 µM in each case.
In the case of `O=c1cnn(C2OC(CO)C(O)C(F)C2O)c(=O)[nH]1` (centres undefined), the TGI in test [1], in test [2], in [3], in test [9], in [4] and in test [10] was more than 100 µM in each case. Moreover, the TGI in test [6], in test [7] and in test [8] was more than 100 µM in each case.
Consider `COC(=O)c1ccc(CN2CCc3c([nH]c4ccccc34)C2CO)o1` (centres undefined), for which the TGI in test [2], in [4], in [5], in [6], in test [7] and in [8] was more than 10 µM throughout.
With `COc1cc2c(cc1O)[C@H](C)C(c1ccc(Cl)cc1)O2` (some centres undefined), the TGI is 27.8 µM in test [1]; 49.2 µM in test [2]; 30.1 µM in test [3]; more than 100 µM in test [4]; 29.4 µM in test [10]; 77.5 µM in test [5]. Further, the figures for the TGI in test [6], in test [7] and in [8] were 72.6 µM, 82.6 µM and 38 µM, respectively.
For `Cc1cc(-c2ccc(C(=O)C(Cl)(Cl)Cl)[nH]2)on1`, the TGI was more than 100 µM in test [1]; 36.7 µM in test [2]; more than 100 µM in test [3]; more than 100 µM in test [10]; 41.9 µM in [5]; more than 100 µM in test [6]. Moreover, the TGI in test [7] and in test [8] was more than 100 µM each time.
